Assay results reported in US20240025953A1, “COMPOSITIONS AND METHODS FOR INHIBITING ALPHA-SYNUCLEIN AGGREGATION” (Seelos Therapeutics, Inc., priority 2020, published 2024).
Where two headings read alike, the source gives them in different places. Ends that are not written are not given here.

How the values were obtained:
Format in all cases: in vitro ADME
[1] = Permeability in a Caco-2 assay; conditions: human; for efflux ratio at 10 μM: read-out: Mean (B-A/A-B) Efflux Ratio
Description: (§1) Permeability of the S62 and S71 peptides were assessed in a Caco-2 assay using methanol.
(§2) Permeability Ranking: lower is <1×10−6 cm/s; higher is >1×10-6 cm/s.

[2] = test system: Caco-2; assay: Permeability in a Caco-2 assay; conditions: Caco-2 assay using methanol
Description: as §1, §2

[3] = Stability in rat plasma; conditions: in vitro in rat plasma, 1% TCA and methanol as quenchers
Description: S62 and S71 peptides (SEQ ID NOs: 3 and 4, respectively) were incubated in vitro in rat plasma with 1% TCA and methanol as quenchers for a period of time calculated to be reflective of the amount of time the peptides would be subject to in vivo conditions if administered to rats.

[4] = Caco-2, Assay Conc. 10 μM, without verapamil
[5] = Caco-2, Assay Conc. 10 μM, without verapamil, read-out: Mean A-B % Recovery
[6] = Caco-2, Assay Conc. 10 μM, without verapamil, read-out: Mean B-A % Recovery
[7] = Caco-2, with Verapamil 25 uM, Assay Conc. 10 μM, with Verapamil 25 uM, read-out: Mean A-B % Recovery
[8] = Caco-2, with Verapamil 25 uM, Assay Conc. 10 μM, with Verapamil 25 uM, read-out: Mean B-A % Recovery

Molecule | Papp A→B at 10 μM [1, 4] | Papp B→A at 10 μM [1, 4] | efflux ratio at 10 μM [1, 4] | recovery at 10 μM [1, 5] | recovery at 10 μM [1, 6] | Permeability (in words) [2] | recovery at 10 μM [1, 7] | recovery at 10 μM [1, 8] | recovery of the peptides after incubation in rat plasma [3]
CC(=O)CC(c1ccccc1)c1c(O)c2ccccc2oc1=O (stereo not shown) [Warfarin, reference compound] | 36.8 ×10⁻⁶ cm/s | 33.8 ×10⁻⁶ cm/s | 0.917 | 93% | 93.4% |  |  |  | 
CNC(=C[N+](=O)[O-])NCCSCc1ccc(CN(C)C)o1 [Ranitidine, reference compound] | 0.391 ×10⁻⁶ cm/s | 1.03 ×10⁻⁶ cm/s | 2.65 | 87.1% | 95.2% |  |  |  | 
GAVVWGVTAVKK [S62, GAVVWGVTAVKK] |  |  |  | 70.1% | 92.5% | neither of the peptides exhibited permeability | 59.7% | 91.3% | not high enough to detect
RAVVTGVTAVAE [S71, RAVVTGVTAVAE] |  |  |  | 91.4% | 74.7% | neither of the peptides exhibited permeability | 80.7% | 92.7% | not high enough to detect
